From a melting point compilation (Tetko et al.) come the findings set out here.

The term melting point denotes the temperature of the solid-liquid transition. `ClC(Cl)(Cl)c1ccc(C(Cl)(Cl)Cl)cc1` yielded a melting point of 109 °C.
With `O=C(O)CCc1ccc2c(c1)CCC(=O)N2` the figure was 234 °C; with `CC1=C(C(=O)OC(C)C)C(c2ccco2)NC(=O)N1` (centres undefined), 205 °C.
`CC(C)(C)NCC(O)COc1nsnc1N1CCOCC1` (centres undefined): the melting point came out at 202 °C.
In turn, `CN(C)c1ccc(N=c2cc(-c3ccccc3)cc(-c3ccccc3)s2)cc1` gave a melting point of 148 °C.
The value for `CC(=O)N(C(C)=O)c1ccccc1` was 37.5 °C; that for `C1=NCC(c2ccc(C3CN=CC=N3)cc2)N=C1` (centres undefined) was 262 °C.
With `Cc1ccsc1C` the figure was -49 °C; with `c1ccc(CON=C(c2cc3ccccc3o2)c2cc3ccccc3o2)cc1`, 127 to 128 °C.
Molecule `CC(=O)Oc1nc(C2CCCCC2)nn1-c1ccccc1` registered a melting point of 108 °C.
The value for `CCOC(=O)C(CCC#N)(CCC#N)C(=O)OCC` was 62 °C.
With `COc1ccc(-c2nc(CCl)no2)cc1` the figure was 60 to 62 °C.
The value for `O=C(CCCN1CCC2(CC1)C(=O)NCN2c1ccccc1)c1ccc(F)cc1` was 190 °C; that for `CCOC(=O)NC(=S)Nc1ncccc1C` was 124 to 126 °C.
Turning to `NNC(=O)CCc1ccc(O)cc1`, the melting point lay within 223 to 225 °C.
The value for `COc1cc2c(cc1OCc1ccccc1)C(CC(C)C)N(Oc1c([N+](=O)[O-])cc([N+](=O)[O-])cc1[N+](=O)[O-])CC2` (centres undefined) was 173 °C; that for `O=S1(=O)CCN(Cc2cccs2)CC1` was 126 to 128 °C.
With `CCN(CC)C(=O)SCc1ccccc1Cl` the figure was 9 °C.
Consider `Cc1cc(O)ncc1[N+](=O)[O-]`, for which the melting point was 189 °C.
With `N#CC1(O)CN2CCC1CC2` (centres undefined) the figure was 156 to 159 °C.
The value for `NNc1cc(Cl)cc(Cl)c1` was 115 °C; that for `O=C(Oc1c(F)c(F)c(F)c(F)c1F)c1cncnc1` was 121 to 124 °C; that for `OC1CCC(O)C1` (centres undefined) was 40 °C.
The value for `CC1(C)C(C=C2CCSC2=O)C1C(=O)OCc1coc(Cc2ccccc2)c1` (centres undefined) was 31 °C; that for `CC(S)C(=O)NCC(=O)O` (centres undefined) was 96 °C.
As for `COc1cc(C(O)C(=O)O)ccc1O` (centres undefined), the melting point lay within 131 to 134 °C.
The value for `Cc1cc(O)nc(N)n1` was 300 °C.
For `OC1COC(Oc2ccc3cc(Br)ccc3c2)C(O)C1O` (centres undefined), the melting point is 190 to 196 °C.
The value for `O=C1/C(=N/Nc2ccc(F)cc2)C(C(F)(F)F)=NN1c1ccccc1` was 185 °C.
Turning to `Cc1cc(N(C)C)ccc1N=Nc1ccccc1`, the melting point was found to be 68 °C.
With `O=Cc1ccccc1O`, the melting point was -3.5 °C.
The value for `O=[N+]([O-])c1ccccc1-n1cccc1` was 59 °C.
The value for `CCO[C@H]1OC(C(N)=O)=CC[C@H]1Br` was 141 to 142 °C.
The molecule `CC(=O)OC1CCC2(C)C(CCC3C2CCC2(C)C3CCC23OCCO3)C1` (centres undefined) gave a melting point of 153 °C.
On to `CN(C)C(=O)NC1CCCCCCC1`, for which the melting point is 138 °C.
For `N#Cc1cnc(Br)nc1N`, the melting point is 250 °C.
With `CCCCCCCCC(CCCCCCCC)C(=O)O` the figure was 38.5 °C; with `CCCCCCCCCCCCN1CC(C(=O)O)CC1=O` (centres undefined), 39 °C.
The value for `CC(=O)Nc1ccc(C2=NN(c3ccccc3)C(=O)/C2=C/C2C(=O)N(c3ccccc3)N=C2c2ccc(NC(C)=O)cc2)cc1` (centres undefined) was 317 °C.
`COC(=O)c1ccc(Oc2cc(Cl)cc(Cl)c2)o1` came in with a melting point of 86 to 89 °C.
With `Nc1ccc([N+](=O)[O-])cc1C(F)(F)F` the figure was 92 °C.
Consider `CN(C)C(=O)Nc1cc(C(C)(C)C)on1`, for which the melting point turned out to be 120 °C.
The value for `C[C@H](C[C@H](I)C(C)(C)C)S(=O)(=O)c1ccccc1` was 74 °C; that for `COc1ccccc1OCC(N)=O` was 142 °C.
With `O=[N+]([O-])c1ccc2c(c1)CCN2` the figure was 93 °C.
For the molecule `OCc1cc(-c2cccs2)[nH]n1`, the melting point fell in the range of 126 to 128 °C.
On to `Clc1cc2c(c(Cl)c1Cl)Oc1cc(Cl)c(Cl)c(Cl)c1O2`, for which the melting point was determined as 285 °C.
The value for `Cc1c(N/N=C(/C(=O)c2ccc([N+](=O)[O-])cc2)S(=O)(=O)c2ccccc2)c(=O)n(-c2ccccc2)n1C` was 135 °C; that for `C[Si](C)(C)c1cnc([Si](C)(C)C)s1` was 55 °C.
As to `CCc1nnc(-c2ccccn2)nc1CC`, the melting point came out at 70 °C.
Regarding `CNC(=O)Sc1ccc(OS(C)(=O)=O)cc1`, the melting point stood at 138 °C.
The value for `CSc1sc(Cl)c2c1C(=O)CC(C)(C)C2` was 126 to 129 °C.
With `CC(OC(=O)Nc1ccccc1)c1cccc(C(C)OC(=O)Nc2ccccc2)c1` (centres undefined) the figure was 136 °C; with `CC(=O)c1ccc(C)cc1`, 28 °C; with `CC12CCC(C(O)=C(Br)C1=O)C2(C)C` (centres undefined), 188 °C.
The value for `COc1ccc2c(c1)CC2C(=O)O` (centres undefined) was 83 to 89 °C; that for `CC1=NNC(=O)C1=Cc1c(O)c2cccc(C)c2[nH]c1=O` was 242 °C.
Molecule `Cc1cccc2c1C(=O)OC2=O` came in with a melting point of 116 °C.
With `NCCN(CCN)CCN` the figure was -16 °C.
`CCCCc1ccc(O)cc1` yielded a melting point of 22 °C.
The value for `CC(C)(C)[N+](=O)[O-]` was 26.2 °C; that for `COc1ccccc1C1Nn2c(nnc2-c2ccccc2)S1` (centres undefined) was 196 °C.
With `Cc1cccc(C(=O)Cl)c1` the figure was -23 °C.
The value for `CC(C)(C)c1csc(N)n1` was 101 °C; that for `Nc1c(Br)cc(Br)c(Cl)c1C(=O)O` was 212 to 215 °C.
The molecule `CN(C)c1ccc(C(=O)NN)cc1` showed a melting point of 175 °C.
As for `CC12CCC3C(CCC(CC(=O)O)C3(C)CC(=O)O)C1CCC2=O` (centres undefined), the melting point was in the range of 223 to 224 °C.
The value for `N#Cc1ccc(C(Cl)=Cc2ccc(C=C(Cl)c3ccc(C#N)cc3[N+](=O)[O-])cc2)c([N+](=O)[O-])c1` was 296 °C; that for `CC1CCC(C(C)C)C(OC(=O)C2=CCC(C(=O)OC3CC(C)CCC3C(C)C)=CC2)C1` (centres undefined) was 68 °C.
The value for `O=C1OC(C2COC3(CCCCC3)O2)C2OC3(CCCCC3)OC12` (centres undefined) was 110 to 113 °C.
In turn, `COc1ccc(-c2noc(CCl)n2)cc1` returned a melting point of 52 to 53 °C.
With `CCCCCCCOC(=O)CCCCC` the figure was -34.4 °C; with `c1ccc(-c2nc3ccccc3nc2-c2ccc3ccccc3c2)cc1`, 121 to 122 °C.
The value for `O=C(Nc1c[nH]c(=O)[nH]c1=O)C(F)(F)C(F)(F)C(F)(F)C(F)(F)C(F)(F)C(F)(F)C(F)(F)C(F)(F)F` was 250 to 252 °C.
The value for `CC(C)(C)OC(=O)C(C)(C)Sc1nnc(N)s1` was 175 to 176 °C; that for `O=C(Oc1c(F)c(F)c(F)c(F)c1F)c1csc(-c2cccnc2)n1` was 136 to 137 °C.
Molecule `COc1cc(CC(C)N)c(OC)cc1C` (centres undefined) displayed a melting point of 60.8 °C.
The value for `O=C1OC(=O)C2=C1CC1=C(CC=CC1)C2` was 204 °C; that for `CC(C)(C)C1=CC(=O)C(C(C)(C)C)=CC1=O` was 153 °C; that for `CN=C(NC)NCc1ccccc1` was 196 °C.
The value for `CCCC(C(N)=O)c1ccc(O)c(O)c1` (centres undefined) was 133 to 135 °C.
The value for `O=C(N=C=S)c1ccccc1` was 128 to 131 °C; that for `CCCC(C)OC(C)=O` (centres undefined) was -100 °C.
`CCCCCCCCCCOc1c(OC)cc(C(N)=O)cc1OC` returned a melting point of 122 °C.
With `COC(=O)Oc1c(F)c(F)c(F)c(F)c1F` the figure was 29 °C; with `N#Cc1ccnc2ccccc12`, 104 °C.
With `CSc1sc(C(=O)O)c(Cl)c1S(=O)(=O)C(C)C` the figure was 227 to 230 °C; with `CN(C)CCc1ccc(O)cc1`, 118 °C.
Molecule `COc1cc(C(=O)Nc2nnc(-c3ccc(Cl)cc3)o2)cc(OC)c1OC` gave a melting point of 261 to 263 °C.
With `c1ccc2[nH]ncc2c1` the figure was 148 °C.
With `N#Cc1c(-c2ccccc2)c2c(=O)[nH]n(-c3ccccc3)c2[nH]c1=S` the figure was 142 °C; with `COC(=O)c1c(C(=O)OC)c(-c2ccccc2)c2c(Cl)nc(Cl)cc2c1Sc1ccccc1`, 178 °C; with `Cc1c2c(c(C)c3c1C(=O)C3)C(=O)C2`, 237 to 238 °C.
The value for `CCCCCCCCOC=O` was -39.1 °C; that for `Clc1ccc(OCCCI)cc1` was 31 to 33 °C.
With `O=C(O)C=C1OC(=O)c2ccccc21`, the melting point was in the range of 287 to 290 °C.
With `O=C(CCl)NNC(=O)c1ccccc1` the figure was 163 to 166 °C.
With `CC(OC1C(N)C(O)OC(CO)C1O)C(=O)O` (centres undefined) the figure was 148 °C; with `CC1=CCC(C)C1=NNc1ccc([N+](=O)[O-])cc1[N+](=O)[O-]` (centres undefined), 198 °C; with `CCOC(=O)CN=C(c1ccccc1)c1ccccc1`, 53 °C.
The molecule `O=C(/C=C/c1ccc(Cl)c(Cl)c1)c1ccc2ccccc2c1` gave a melting point of 153 °C.
The value for `Nc1nnc(-c2ccccc2)s1` was greater than 270 °C.
The value for `CCCCC(=O)c1ccc2c(c1)OCCOCCOc1cc(C(=O)CCCC)ccc1OCCOCCO2` was 117 to 133 °C.
The value for `CC(=O)N(C)c1ccc(N)cc1` was 70 to 71 °C; that for `O/N=C(/CC(NO)c1ccccc1)c1ccccc1` (centres undefined) was 141 °C.
As to `CCOc1ccc(CC#N)cc1`, the melting point was in the range of 44 to 47 °C.
Regarding `COc1ccc(OC)c(NC(N)=S)c1`, the melting point came out at 160 °C.
`O=[N+]([O-])c1cc(S(=O)(=O)Cl)ccc1Cl` registered a melting point of 60 °C.
With `Cc1ccccc1OP(=O)(Oc1ccccc1C)Oc1ccccc1C` the figure was -25 °C.
